Reference: publication PMC5218480 (PLoS ONE, 2017)

Tested on: MV-4-11 cells
Test: Gene expression microarray analysis (Affymetrix PrimeView) and GSEA
Type: cell-based, human
Parameters: RFU PODN (11730768_x_at) / Fold change /veh PODN (11730768_x_at) / RFU LINC00158 (11744669_a_at) / Fold change /veh LINC00158 (11744669_a_at) / RFU DUSP10 (11751237_a_at) / Fold change /veh DUSP10 (11751237_a_at) / RFU ID3 (11757404_x_at) / Fold change /veh ID3 (11757404_x_at) / RFU PLEKHG5 (11737974_s_at) / Fold change /veh PLEKHG5 (11737974_s_at) / RFU LRRC4B (11730491_at) / Fold change /veh LRRC4B (11730491_at) / RFU GIMAP4 (11747438_a_at) / Fold change /veh GIMAP4 (11747438_a_at) / RFU KRT8 (11758183_x_at) / Fold change /veh KRT8 (11758183_x_at) / RFU CNN1 (11734310_a_at) / Fold change /veh CNN1 (11734310_a_at) / RFU VPS37D (11726825_at) / Fold change /veh VPS37D (11726825_at) / RFU C10orf10 (11716522_x_at) / Fold change /veh C10orf10 (11716522_x_at) / RFU KIR2DL2 /// KIR2DL4 /// KIR2DL5A /// KIR2DL5B /// KIR2DS1 /// KIR2DS2 /// KIR2DS3 /// KIR2DS4 /// KIR3DL3 /// KIR3DL3 /// KIR3DS1 (11738374_at) / Fold change /veh KIR2DL2 /// KIR2DL4 /// KIR2DL5A /// KIR2DL5B /// KIR2DS1 /// KIR2DS2 /// KIR2DS3 /// KIR2DS4 /// KIR3DL3 /// KIR3DL3 /// KIR3DS1 (11738374_at) / RFU C1QL1 (11718748_at) / Fold change /veh C1QL1 (11718748_at) / RFU TMPRSS4 (11747572_a_at) / Fold change /veh TMPRSS4 (11747572_a_at) / RFU HAMP (11756126_x_at) / Fold change /veh HAMP (11756126_x_at) / RFU RNFT2 (11725882_a_at) / Fold change /veh RNFT2 (11725882_a_at) / RFU NR4A2 (11747474_a_at) / Fold change /veh NR4A2 (11747474_a_at) / RFU ABCC12 (11746883_a_at) / Fold change /veh ABCC12 (11746883_a_at) / RFU TMEM136 (11760407_x_at) / Fold change /veh TMEM136 (11760407_x_at) / RFU CLDN22 /// WWC2 (11732394_at) / Fold change /veh CLDN22 /// WWC2 (11732394_at) / RFU HLA-DPB1 (11760878_x_at) / Fold change /veh HLA-DPB1 (11760878_x_at) / RFU SPINT1 (11716480_a_at) / Fold change /veh SPINT1 (11716480_a_at) / RFU GAP43 (11754022_s_at) / Fold change /veh GAP43 (11754022_s_at) / RFU A4GNT (11735810_at) / Fold change /veh A4GNT (11735810_at) / RFU PRB3 (11715151_x_at) / Fold change /veh PRB3 (11715151_x_at) / RFU TUBB4B (11761932_at) / Fold change /veh TUBB4B (11761932_at) / RFU CAPN14 (11732068_a_at) / Fold change /veh CAPN14 (11732068_a_at) / RFU TMCC2 (11721928_a_at) / Fold change /veh TMCC2 (11721928_a_at) / RFU IRGQ (11745062_a_at) / Fold change /veh IRGQ (11745062_a_at) / RFU FAM174B (11720279_a_at) / Fold change /veh FAM174B (11720279_a_at) / RFU TMPRSS4 (11748680_a_at) / Fold change /veh TMPRSS4 (11748680_a_at) / RFU FAM212B (11763350_a_at) / Fold change /veh FAM212B (11763350_a_at) / RFU PLEKHG5 (11743358_a_at) / Fold change /veh PLEKHG5 (11743358_a_at) / RFU ZSCAN30 (11745921_a_at) / Fold change /veh ZSCAN30 (11745921_a_at) / RFU CMKLR1 (11741424_a_at) / Fold change /veh CMKLR1 (11741424_a_at) / RFU LOC101060620 /// MAPK8IP1 (11723275_at) / Fold change /veh LOC101060620 /// MAPK8IP1 (11723275_at) / RFU SPTSSB (11747773_x_at) / Fold change /veh SPTSSB (11747773_x_at) / RFU PRSS12 (11739890_at) / Fold change /veh PRSS12 (11739890_at) / RFU BIN1 (11741810_x_at) / Fold change /veh BIN1 (11741810_x_at) / RFU WNT11 (11732464_a_at) / Fold change /veh WNT11 (11732464_a_at) / RFU C10orf10 (11716521_a_at) / Fold change /veh C10orf10 (11716521_a_at) / RFU C5orf56 (11738089_at) / Fold change /veh C5orf56 (11738089_at) / RFU CYB561 (11721691_x_at) / Fold change /veh CYB561 (11721691_x_at) / RFU ANKRD19P (11752326_a_at) / Fold change /veh ANKRD19P (11752326_a_at) / RFU OR2T12 /// OR2T33 /// OR2T8 (11738714_s_at) / Fold change /veh OR2T12 /// OR2T33 /// OR2T8 (11738714_s_at) / RFU VCAN (11748164_a_at) / Fold change /veh VCAN (11748164_a_at) / RFU JSRP1 (11732532_at) / Fold change /veh JSRP1 (11732532_at) / RFU KRTAP10-11 (11738290_x_at) / Fold change /veh KRTAP10-11 (11738290_x_at) / RFU MYO3A (11730013_a_at) / Fold change /veh MYO3A (11730013_a_at) / RFU EBF3 (11725865_a_at) / Fold change /veh EBF3 (11725865_a_at) / RFU CAMK2N1 (11719241_x_at) / Fold change /veh CAMK2N1 (11719241_x_at) / RFU C5orf56 (11738088_a_at) / Fold change /veh C5orf56 (11738088_a_at) / RFU OLFML3 (11715873_a_at) / Fold change /veh OLFML3 (11715873_a_at) / RFU LOC100653217 /// NTM (11731650_a_at) / Fold change /veh LOC100653217 /// NTM (11731650_a_at) / RFU MAPK11 (11762145_a_at) / Fold change /veh MAPK11 (11762145_a_at) / RFU FIZ1 (11724087_x_at) / Fold change /veh FIZ1 (11724087_x_at) / RFU OASL (11726364_x_at) / Fold change /veh OASL (11726364_x_at) / RFU SOX15 (11748057_x_at) / Fold change /veh SOX15 (11748057_x_at) / RFU CD79A (11719716_a_at) / Fold change /veh CD79A (11719716_a_at) / RFU HIST1H1D (11736915_at) / Fold change /veh HIST1H1D (11736915_at) / RFU CASKIN2 (11723855_a_at) / Fold change /veh CASKIN2 (11723855_a_at) / RFU LOC730098 (11760151_x_at) / Fold change /veh LOC730098 (11760151_x_at) / RFU OR4N2 (11742367_at) / Fold change /veh OR4N2 (11742367_at) / RFU PRRT2 (11749266_a_at) / Fold change /veh PRRT2 (11749266_a_at) / RFU SNX32 (11753110_a_at) / Fold change /veh SNX32 (11753110_a_at) / RFU CDHR5 (11726645_a_at) / Fold change /veh CDHR5 (11726645_a_at) / RFU RCAN1 (11760418_a_at) / Fold change /veh RCAN1 (11760418_a_at) / RFU FAM167A (11723789_a_at) / Fold change /veh FAM167A (11723789_a_at) / RFU FAM26E (11764081_at) / Fold change /veh FAM26E (11764081_at) / RFU ISYNA1 (11749810_s_at) / Fold change /veh ISYNA1 (11749810_s_at) / RFU ACY1 (11761880_at) / Fold change /veh ACY1 (11761880_at) / RFU 11764098_at / Fold change /veh 11764098_at / RFU SAMD14 (11745864_x_at) / Fold change /veh SAMD14 (11745864_x_at) / RFU NPB (11741838_a_at) / Fold change /veh NPB (11741838_a_at) / RFU TMPRSS6 (11731388_a_at) / Fold change /veh TMPRSS6 (11731388_a_at) / RFU KRTAP10-2 (11738614_at) / Fold change /veh KRTAP10-2 (11738614_at) / RFU ARHGAP8 /// PRR5-ARHGAP8 (11727945_x_at) / Fold change /veh ARHGAP8 /// PRR5-ARHGAP8 (11727945_x_at) / RFU KRTAP5-7 /// NADSYN1 (11734609_at) / Fold change /veh KRTAP5-7 /// NADSYN1 (11734609_at) / RFU RASL12 (11751679_a_at) / Fold change /veh RASL12 (11751679_a_at) / RFU CDKN2B (11736163_a_at) / Fold change /veh CDKN2B (11736163_a_at) / RFU PRF1 (11729649_at) / Fold change /veh PRF1 (11729649_at) / RFU, ZNF638 /// ZNF638-IT1 / Fold change vs veh, ZNF638 /// ZNF638-IT1 / RFU, PANK3 / Fold change vs veh, PANK3 / RFU, SH3YL1 / Fold change vs veh, SH3YL1 / RFU, ZEB2 / Fold change vs veh, ZEB2 / RFU, NRIP1 / Fold change vs veh, NRIP1 / RFU, PTTG1IP / Fold change vs veh, PTTG1IP / RFU, CAPN2 / Fold change vs veh, CAPN2 / RFU, MED14 / Fold change vs veh, MED14 / RFU, SNORA58 / Fold change vs veh, SNORA58 / RFU, C1orf63 / Fold change vs veh, C1orf63 / RFU, LRRFIP1 / Fold change vs veh, LRRFIP1 / RFU, NDUFAF7 / Fold change vs veh, NDUFAF7 / RFU, SLC12A2 / Fold change vs veh, SLC12A2 / RFU, IBTK / Fold change vs veh, IBTK / RFU, ESF1 / Fold change vs veh, ESF1 / Fold change vs veh, TMEM50B / RFU, TAOK1 / Fold change vs veh, TAOK1 / RFU, ACBD3 / Fold change vs veh, ACBD3 / RFU, TMA16 / Fold change vs veh, TMA16 / RFU, RWDD3 / Fold change vs veh, RWDD3 / RFU, BCAT1 / Fold change vs veh, BCAT1 / RFU, EDEM3 / Fold change vs veh, EDEM3 / RFU, TMEM33 / Fold change vs veh, TMEM33 / RFU, WDR75 / Fold change vs veh, WDR75 / RFU, AHCTF1 / Fold change vs veh, AHCTF1 / RFU, TFRC / Fold change vs veh, TFRC / RFU, ZDHHC17 / Fold change vs veh, ZDHHC17 / RFU, NOM1 / Fold change vs veh, NOM1 / RFU, ARL8B / Fold change vs veh, ARL8B / RFU, ZBTB11 / Fold change vs veh, ZBTB11 / RFU, TAMM41 / Fold change vs veh, TAMM41 / RFU, KIAA1704 /// LOC100996395 / Fold change vs veh, KIAA1704 /// LOC100996395 / RFU, ING1 / Fold change vs veh, ING1 / RFU, TRMT61B / Fold change vs veh, TRMT61B / RFU, FUBP3 / Fold change vs veh, FUBP3 / RFU, TP53 / Fold change vs veh, TP53 / RFU, TNKS2 / Fold change vs veh, TNKS2 / RFU, ZFP14 / Fold change vs veh, ZFP14 / RFU, ACTR2 / Fold change vs veh, ACTR2 / RFU, PPP3R1 / Fold change vs veh, PPP3R1 / RFU, PIK3R1 / Fold change vs veh, PIK3R1 / RFU, HNRNPA1 / Fold change vs veh, HNRNPA1 / RFU, RNF170 / Fold change vs veh, RNF170 / RFU, ZNF28 / Fold change vs veh, ZNF28 / RFU, RNGTT / Fold change vs veh, RNGTT / RFU, OGT / Fold change vs veh, OGT / RFU, BRD1 / Fold change vs veh, BRD1 / RFU, MARS / Fold change vs veh, MARS / RFU, ZNF655 / Fold change vs veh, ZNF655 / RFU, FAHD1 / Fold change vs veh, FAHD1 / RFU, BDP1 / Fold change vs veh, BDP1 / RFU, LRRCC1 / Fold change vs veh, LRRCC1 / RFU, ARID1A / Fold change vs veh, ARID1A / RFU, ZNF146 / Fold change vs veh, ZNF146 / RFU, ZNF330 / Fold change vs veh, ZNF330 / RFU, GPN3 / Fold change vs veh, GPN3 / RFU, C9orf123 / Fold change vs veh, C9orf123 / RFU, N4BP2L2 / Fold change vs veh, N4BP2L2 / RFU, ARFIP1 / Fold change vs veh, ARFIP1 / RFU, FAM179B / Fold change vs veh, FAM179B / RFU, BCL10 / Fold change vs veh, BCL10 / RFU, UHRF1BP1L / Fold change vs veh, UHRF1BP1L / RFU, BET1 / Fold change vs veh, BET1 / RFU, CNOT2 / Fold change vs veh, CNOT2 / RFU, ZNF268 / Fold change vs veh, ZNF268 / Fold change vs veh, ZNF507 / RFU, DGCR2 / Fold change vs veh, DGCR2 / RFU, WDSUB1 / Fold change vs veh, WDSUB1 / Fold change vs veh, HSP90B1 /// MIR3652 / RFU, ADSS / Fold change vs veh, ADSS / RFU, GK / Fold change vs veh, GK / RFU, ZNF148 / Fold change vs veh, ZNF148 / RFU, TAF9 / Fold change vs veh, TAF9 / RFU, SLC1A5 / Fold change vs veh, SLC1A5 / RFU, SLMO2 / Fold change vs veh, SLMO2 / RFU, ABCC4 / Fold change vs veh, ABCC4 / RFU, LOC101060439 /// RAP1B / Fold change vs veh, LOC101060439 /// RAP1B / RFU, RFX7 / Fold change vs veh, RFX7 / RFU, GTPBP10 / Fold change vs veh, GTPBP10 / RFU, CNEP1R1 / Fold change vs veh, CNEP1R1 / RFU, BIVM-ERCC5 /// ERCC5 / Fold change vs veh, BIVM-ERCC5 /// ERCC5 / RFU, ILF3 / Fold change vs veh, ILF3 / RFU 11762660_at / Fold change /veh 11762660_at / RFU VCAN (11757783_s_at) / Fold change /veh VCAN (11757783_s_at) / RFU DDX43 (11728927_at) / Fold change /veh DDX43 (11728927_at) / RFU KRT8 (11758188_x_at) / Fold change /veh KRT8 (11758188_x_at) / RFU NKD1 (11759106_at) / Fold change /veh NKD1 (11759106_at) / RFU SRD5A1 (11742802_a_at) / Fold change /veh SRD5A1 (11742802_a_at) / RFU TPSAB1 /// TPSB2 (11721975_s_at) / Fold change /veh TPSAB1 /// TPSB2 (11721975_s_at) / RFU GSTM3 (11746129_a_at) / Fold change /veh GSTM3 (11746129_a_at) / RFU IL23R (11737362_x_at) / Fold change /veh IL23R (11737362_x_at) / RFU TMEM51 (11727254_a_at) / Fold change /veh TMEM51 (11727254_a_at) / RFU PIWIL2 (11732686_x_at) / Fold change /veh PIWIL2 (11732686_x_at) / RFU ORM1 (11744905_x_at) / Fold change /veh ORM1 (11744905_x_at) / RFU CCDC152 (11743942_at) / Fold change /veh CCDC152 (11743942_at) / RFU ECM1 (11717891_a_at) / Fold change /veh ECM1 (11717891_a_at) / RFU IL23R (11748794_a_at) / Fold change /veh IL23R (11748794_a_at) / RFU TNFAIP8L3 (11732012_x_at) / Fold change /veh TNFAIP8L3 (11732012_x_at) / RFU MBOAT4 (11741988_at) / Fold change /veh MBOAT4 (11741988_at) / RFU 11764193_at / Fold change /veh 11764193_at / RFU TMEM53 (11763286_at) / Fold change /veh TMEM53 (11763286_at) / RFU MAGEB2 (11727129_at) / Fold change /veh MAGEB2 (11727129_at) / RFU TMEM200A (11744735_a_at) / Fold change /veh TMEM200A (11744735_a_at) / RFU CCDC152 (11751479_a_at) / Fold change /veh CCDC152 (11751479_a_at) / RFU FAM211A (11726209_a_at) / Fold change /veh FAM211A (11726209_a_at) / RFU RGS16 (11746705_a_at) / Fold change /veh RGS16 (11746705_a_at) / RFU VCAN (11755009_s_at) / Fold change /veh VCAN (11755009_s_at) / RFU RHOB (11743442_s_at) / Fold change /veh RHOB (11743442_s_at) / RFU RGS16 (11720943_a_at) / Fold change /veh RGS16 (11720943_a_at) / RFU RGS16 (11720944_at) / Fold change /veh RGS16 (11720944_at) / RFU, VPS4B / Fold change vs veh, VPS4B / RFU, CREB1 / Fold change vs veh, CREB1 / RFU, DNAJC13 / Fold change vs veh, DNAJC13 / RFU, GNAQ / Fold change vs veh, GNAQ / RFU, CDK5R1 / Fold change vs veh, CDK5R1 / RFU, ZRANB3 / Fold change vs veh, ZRANB3 / RFU, CUL4A / Fold change vs veh, CUL4A / RFU, CCNY / Fold change vs veh, CCNY / RFU, UFL1 / Fold change vs veh, UFL1 / RFU, COG3 / Fold change vs veh, COG3 / RFU, DIAPH2 / Fold change vs veh, DIAPH2 / RFU, SKA2 / Fold change vs veh, SKA2 / RFU, AFF3 / Fold change vs veh, AFF3 / RFU, LMF1 / Fold change vs veh, LMF1 / RFU, IPO11 / Fold change vs veh, IPO11 / RFU, DFFB / Fold change vs veh, DFFB / RFU, FOXP1 / Fold change vs veh, FOXP1 / RFU, CARD8 / Fold change vs veh, CARD8 / RFU, STRN3 / Fold change vs veh, STRN3 / RFU, ADK / Fold change vs veh, ADK / RFU, RASSF2 / Fold change vs veh, RASSF2 / RFU, WIPF1 / Fold change vs veh, WIPF1 / RFU, LARP1B / Fold change vs veh, LARP1B / RFU, RASA1 / Fold change vs veh, RASA1 / RFU, RB1 / Fold change vs veh, RB1 / RFU, PPFIA1 / Fold change vs veh, PPFIA1 / RFU, MAT2A / Fold change vs veh, MAT2A / RFU, CCT5 / Fold change vs veh, CCT5 / RFU, WDR92 / Fold change vs veh, WDR92 / RFU, CUX1 / Fold change vs veh, CUX1 / RFU, TTC7A / Fold change vs veh, TTC7A / RFU, TMEM135 / Fold change vs veh, TMEM135 / RFU, DEPTOR / Fold change vs veh, DEPTOR / RFU, CPM / Fold change vs veh, CPM / RFU, DNAJB6 / Fold change vs veh, DNAJB6 / RFU, CACNA2D3 / Fold change vs veh, CACNA2D3 / RFU, DTX4 / Fold change vs veh, DTX4 / RFU, TFCP2 / Fold change vs veh, TFCP2 / RFU, GMCL1 /// GMCL1P1 / Fold change vs veh, GMCL1 /// GMCL1P1 / RFU, AEBP2 / Fold change vs veh, AEBP2 / RFU, SNHG1 /// SNORD22 /// SNORD25 /// SNORD26 /// SNORD27 /// SNORD28 /// SNORD29 /// SNORD31 / Fold change vs veh, SNHG1 /// SNORD22 /// SNORD25 /// SNORD26 /// SNORD27 /// SNORD28 /// SNORD29 /// SNORD31 / Fold change (Aza/veh), C12orf56 (ProbeSet 11735607_a_at) / Fold change (ACY-1035/veh), C12orf56 (ProbeSet 11735607_a_at) / Fold change (Aza/veh), FGFR1OP (ProbeSet 11751329_s_at) / Fold change (ACY-1035/veh), FGFR1OP (ProbeSet 11751329_s_at) / Fold change (Aza/veh), VPS36 (ProbeSet 11739960_a_at) / Fold change (ACY-1035/veh), VPS36 (ProbeSet 11739960_a_at) / RFU SYPL1 (11715823_x_at) / Fold change /veh SYPL1 (11715823_x_at) / RFU IGFBP7 (11715501_s_at) / Fold change /veh IGFBP7 (11715501_s_at) / RFU REEP3 (11722064_at) / Fold change /veh REEP3 (11722064_at) / RFU IGLL1 (11728026_x_at) / Fold change /veh IGLL1 (11728026_x_at): dose or concentration left out as unconfirmed
Conditions: ProbeSet 11723944_a_at; LIST B

## Nc1ncn([C@@H]2O[C@H](CO)[C@@H](O)[C@H]2O)c(=O)n1 [azacitidine]
  RFU, PTTG1IP: 678.15 RFU
